Source: US9187458B2, “Cyanoquinoline derivatives” (Tianjin Hemay Bio-Tech Co., LTD., priority 2010, dated 2015)

How the values were obtained:
EGFR-TK = molecular target: T1, EGFR-TK (Homo sapiens, UniProt P00533); assay: Inhibition Test on EGFR-TK (ELISA, PGT substrate); assay type: biochemical; details: 20 min at room temperature, read-out: Inhibition Activity (EC50) on EGFR-TK phosphorylation
T1 construct: EGFR-TK: intracellular epidermal growth factor receptor phosphorylase
Description: Inhibition Test on EGFR-TK
1. 2 mg/ml of PGT was diluted with PBS to 0.2 mg/ml. The resulting solution was added into elisa plate by 50 μl per well. The plate was placed in a refrigerator at 4° C. and coated overnight.
2. The coating solution was discarded to stop coating. The plate was washed three times with PBS, and then beaten to dryness.
3. The elisa plate was placed in a refrigerator at 4° C., drained out and stood for 2h.
4. The mother liquid of aqueous solution of each compound was diluted with double distilled water to four folds, i.e. a desirable concentration. Then, the compound was diluted and added in the corresponding elisa well by 25 μl/well.
5. […] of ATP solution was diluted with double distilled water to 50 folds and then sufficiently mixed. The resulting solution was separately added in each elisa well by 25 μl per well (except for the negative control).
6. EGFR kinase was diluted with 2×TKB to 800 folds. The solution was added in elisa well with 50 μl per well. Then, the enzyme reaction began. The elisa plate was immediately placed on a micro-oscillator and shaked to react for 20 min at the room temperature.
7. 2% of SDS was added in the elisa well to stop the reaction by adding 100 μl of SDS into each well. The solution was sufficiently mixed on the micro-oscillator to sufficiently mix for about 5 min.
8. The reaction solution was sucked out. The plate was washed four times with PBST. After the plate was beaten to dryness, 0.25 μg/ml of mice anti-phosphorylation tyrosine-HRP antibody which was diluted with blocking solution (3% solution of BSA in PBST) was added in the plate by 100 μl per well. The mixture was reacted for 30 min at the room temperature.
9. The antibody reaction solution was sucked out. The plate was washed four times with PBST. After the plate was beated to dryness, TMB peroxidase substrate was added to the plate by 100 μl/well. The mixture reacted in the dark for 15 min at the room temperature.
10. 100 μl of 2N H2SO4 was added in the plate to stop the chromogenic reaction. After the bubbles were cleansed, OD values were determined in ELIASA at 450 nm.
11. Formula for calculating inhibition percentage: […]

NCI-H358 cells = assay: NCI-H358 Cell Growth Inhibition Test (MTT Assay); assay type: cell-based; details: Homo sapiens, 72 h incubation
Description: NCI-H358 Cell Growth Inhibition Test (MTT Assay)
Cell strains: NCI-H358 (human non-small cell lung cancer cell strains);
1. A plate (10 cm) of cells in logarithmic growth phase normally cultured was collected;
2. The culture solution was sucked out. The plate was washed with 5 ml of PBS 1-2 times;
3. PBS was sucked out. 1.5 ml of 0.25% pancreatin was added to infiltrate the cells for 1 min;
4. The culture plate was placed in an incubator. Digestion was carried out for about 5 min at 37° C.;
5. 3 ml of complete culture solution was added to the culture plate to stop the digestion. Tthe cells were carefully scoured with micropipette (1 ml) to give a uniform cell suspension. The suspension was implanted into a 96-well cell culture plate by 10000 cells/100 […] per well. The culture plate was incubated overnight under 5% CO2 at 37° C. In day 2, 100 μA of culture solution comprising a compound was added in each well, and further incubated for 72 h under 5% CO2 at 37° C.
6. The culture solution was sucked out;
7. 100 μA of serum-free culture solution containing 0.5 mg/ml MTT was added in each well, and incubated for 3 h;
8. The culture solution was carefully sucked out;
9. 100 μA of DMSO was added in each well and vibrated to dissolve;
10. OD values were determined at 490 nM.
1. Calculation of Relative Inhibition Ratio The inhibition ratio of a compound on cell growth=(PC−n)/(PC−NC)×100%
IC50: Concentration of a compound where inhibition ratio was 50%. IC50 values were fitted with Origin7.5.

BxPc-3 cells = assay: BxPc-3 Cell Growth Inhibition Test (MTT Assay); assay type: cell-based; details: Homo sapiens, 72 h incubation
Description: BxPc-3 Cell Growth Inhibition Test (MTT Assay) Cell strains: BxPC-3 (human pancreatic cancer cell strains); Culture medium: 90% RPMI-1640+10% FBS; 1. A plate (10 cm) of cells in logarithmic growth phase normally cultured was collected; 2. The culture solution was sucked out. […] The plate was washed with 5 ml of PBS 1-2 times; 3. PBS was sucked out. 1.5 ml of 0.25% pancreatin was added to infiltrate the cells for 1 min; 4. The pancreatin was sucked out. The culture plate was placed in an incubator. Digestion was carried out for about 5 min at 37° C.; 5. 4.5 ml of complete culture solution was added to the culture plate to stop the digestion. The cells were carefully scoured with micropipette (1 ml) to give a uniform cell suspension. The suspension was implanted into a 96-well cell culture plate by 5000 cells/100 μl per well. The culture plate was incubated overnight under 5% CO2 at 37° C. In day 2, 100 μl of culture solution comprising a compound was added in each well, and further incubated for 72 h under 5% CO2 at 37° C. 6. The culture solution was sucked out; 7. 100 μl of serum-free culture solution containing 0.5 mg/ml MTT was added in each well, and incubated for 3 h; 8. The culture solution was carefully sucked out; 9. 100 μl of DMSO was added in each well and vibrated to dissolve; 10. OD values were determined at […]. 1. Calculation of Relative Inhibition Ratio The inhibition ratio of a compound on cell growth=(PC−n)/(PC−NC)×100% IC50: Concentration of a compound where inhibition ratio was 50%. IC50 values were fitted with Origin7.5.

T1 sequence (P00533 669-1210 limits assumed): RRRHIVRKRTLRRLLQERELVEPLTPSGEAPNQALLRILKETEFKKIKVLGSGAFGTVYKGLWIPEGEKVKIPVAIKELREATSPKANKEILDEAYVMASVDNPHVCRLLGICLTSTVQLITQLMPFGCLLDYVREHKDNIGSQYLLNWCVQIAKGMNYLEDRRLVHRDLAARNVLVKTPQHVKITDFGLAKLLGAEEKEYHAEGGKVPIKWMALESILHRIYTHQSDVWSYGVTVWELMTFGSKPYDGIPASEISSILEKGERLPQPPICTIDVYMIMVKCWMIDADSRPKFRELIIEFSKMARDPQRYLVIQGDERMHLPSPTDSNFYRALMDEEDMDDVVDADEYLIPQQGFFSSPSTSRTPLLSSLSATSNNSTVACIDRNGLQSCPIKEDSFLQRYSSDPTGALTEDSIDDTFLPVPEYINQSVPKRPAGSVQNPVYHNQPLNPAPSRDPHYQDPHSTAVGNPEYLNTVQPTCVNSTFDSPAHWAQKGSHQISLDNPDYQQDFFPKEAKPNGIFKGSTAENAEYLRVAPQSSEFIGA

Row | Compound | EC50 (EGFR-TK) [nM] | IC50 (NCI-H358 cells) [nM] | IC50 (BxPc-3 cells) [nM]
1 | CN(C)C/C=C/C(=O)Nc1cc2c(Nc3ccc(OCc4ccccn4)c(Cl)c3)c(C#N)cnc2cc1OC1CCOC1 (stereo not shown) [Example 21, (E)-N-(4-(3-CHLORO-4-(PYRIDIN-2-YL-METHOXY)PHENYLAMINO)-3-CYANO-7-(TETRAHYDROFURAN-3-YL-OXY)QUINOLIN-6-YL)-4-(DIMETHYLAMINO)-BUT-2-ENAMIDE] | 154 |  | 
2 | C#Cc1cccc(Nc2c(C#N)cnc3cc(OC4CCOC4)c(NC(=O)/C=C/CN(C)C)cc23)c1 (stereo not shown) [Example 5, (E)-N-(3-CYANO-4-(3-ETHYNYLPHENYLAMINO)-7-(TETRAHYDROFURAN-3-YL-OXY)QUINOLIN-6-YL)-4-(DIMETHYLAMINO)-BUT-2-ENAMIDE] | 44 |  | 
3 | CN(C)C/C=C/C(=O)Nc1cc2c(Nc3ccc(OCc4cccc(F)c4)c(Cl)c3)c(C#N)cnc2cc1OC1CCOC1 (stereo not shown) [Example 9, (E)-N-(4-(4-(3-FLUOROBENZYLOXY)-3-CHLOROPHENYLAMINO)-3-CYANO-7-(TETRAHYDROFURAN-3-YL-OXY)QUINOLIN-6-YL)-4-(DIMETHYLAMINO)-BUT-2-ENAMIDE] | 135 |  | 
4 | CN(C)C/C=C/C(=O)Nc1cc2c(Nc3ccc(F)c(Cl)c3)c(C#N)cnc2cc1OC1CCOC1 (stereo not shown) [Example 4, (E)-N-(4-(3-CHLORO-4-FLUOROPHENYLAMINO)-3-CYANO-7-(TETRAHYDROFURAN-3-YL-OXY)QUINOLIN-6-YL)-4-(DIMETHYLAMINO)-BUT-2-ENAMIDE] | 42 |  | 

Continued, values first:

Row | EC50 (EGFR-TK) [nM] | IC50 (NCI-H358 cells) [nM] | IC50 (BxPc-3 cells) [nM] | Compound
5 | 110 | 54 | 337 | CN(C)C/C=C/C(=O)Nc1cc2c(Nc3ccc(OCc4ccccn4)c(Cl)c3)c(C#N)cnc2cc1O[C@H]1CCOC1 [Example 138, (S,E)-N-(4-(3-CHLORO-4-(PYRIDIN-2-YL-METHOXY)PHENYLAMINO)-3-CYANO-7-(TETRAHYDROFURAN-3-YL-OXY)QUINOLIN-6-YL)-4-(DIMETHYLAMINO)-BUT-2-ENAMIDE]
6 |  |  | 188 | CN(C)C/C=C/C(=O)Nc1cc2c(Nc3ccc(OCc4ccccn4)c(Cl)c3)c(C#N)cnc2cc1O[C@@H]1CCOC1 [Example 139, (R,E)-N-(4-(3-CHLORO-4-(PYRIDIN-2-YL-METHOXY)PHENYLAMINO)-3-CYANO-7-(TETRAHYDROFURAN-3-YL-OXY)QUINOLIN-6-YL)-4-(DIMETHYLAMINO)-BUT-2-ENAMIDE]
7 |  | 78 |  | CC(C)(C)NC/C=C/C(=O)Nc1cc2c(Nc3ccc(OCc4ccccn4)c(Cl)c3)c(C#N)cnc2cc1O[C@H]1CCOC1 [Example 153, (S,E)-N-(4-(3-CHLORO-4-(PYRIDIN-2-YL-METHOXY)PHENYLAMINO)-3-CYANO-7-(TETRAHYDROFURAN-3-YL-OXY)QUINOLIN-6-YL)-4-(TERT-BUTYLAMINO)-BUT-2-ENAMIDE]
8 |  |  | 416 | CN(C)C/C=C/C(=O)Nc1cc2c(Nc3ccc(F)c(Cl)c3)c(C#N)cnc2cc1O[C@H]1CCOC1 [Example 142, (S,E)-N-(4-(3-CHLORO-4-FLUOROPHENYLAMINO)-3-CYANO-7-(TETRAHYDROFURAN-3-YL-OXY)QUINOLIN-6-YL)-4-(DIMETHYLAMINO)-BUT-2-ENAMIDE]
